This is an account of results in PMC10381533, “Inhibitory Effects of the Fungal Pigment Rubiginosin C on Hyphal and Biofilm Formation in Candida albicans and Candida auris” (Journal of Fungi, 2023).

≈ marks a conversion by molar mass, not a printed value.

Experiment [1] has as its system C. auris biofilm. The experiment can be described thus: Crystal violet biofilm formation assay, C. auris. The class given is cell-based, Candida auris. Particulars: for effect on formation of C. auris biofilms: CV assay, 24 h treatment. As for the experimental part:
The fungal pathogens C. auris [[…]] or C. albicans [DSM 11225] were cultured from stock in 25 mL YPD medium in a 250 mL flask (30 °C, 100 rpm, 18 h). The turbidity of the broth was measured at 280 nm using a spectrophotometer (Nanodrop 2000c, Thermo Fisher Scientific, Waltham, MA, USA) and diluted to match the turbidity of a 0.5 McFarland standard in RPMI 1640 medium (Gibco, New York, NY, USA; Thermo Fisher Scientific), supplemented with […] 3-(N-morpholino)propanesulfonic acid (MOPS, Carl Roth, Karlsruhe, Germany) for C. auris, or 0.05 McFarland standard in RPMI 1640 medium in the case of C. albicans. Subsequently, 150 μL of the fungal dispersion were added into each well of a 96-well microtiter plate (Falcon no. 351172, Thermo Fisher Scientific) and further incubated (37 °C, 150 rpm, 2 h [C. auris] or 90 min [C. albicans]). The supernatant was discarded and the plate was rinsed one time by using a PBS buffer. Afterwards, azaphilones (Rub A, C, W, Z, and Rut A and B) were serially diluted in 150 μL in fresh medium to concentrations of 250–2 μg/mL (Rub C for C. auris: 250–0.02 μg/mL). Methanol (2.5%) was used as a solvent control and both, nystatin (NYS; Thermo Fisher Scientific) and farnesol (FA; Sigma Aldrich, St. Louis, MO, USA) as positive controls (250–2 μg/mL) for C. auris and C. albicans, respectively. Plates were further incubated (37 °C, 150 rpm, 24 h). The supernatant was discarded and biofilms were washed with PBS, stained by adding 150 μL of the crystal violet (CV; Sigma Aldrich) solution (0.1%), and incubated (room temperature, 25 min). Afterwards, the plates were washed twice with PBS buffer. A total of 150 μL ethanol (95%) were applied to dissolve the biofilm-bound CV. The absorbance was measured by a plate reader (Synergy 2, BioTek, Santa Clara, CA, USA) at 570 nm for C. auris or 610 nm for C. albicans. Error bars indicate SD with duplicates in two biological repeats.

Experiment [2] has as its system C. auris [DSM 21092]. The experiment can be described thus: MIC assay, C. auris. The class given is cell-based, Candida auris. To be noted: tested 250–2 µg/mL. How it is done: (§1) The MICs of rubiginosin- and rutilin-type azaphilones—in detail, Rub A, C, W, Z, and Rut A and B—were determined as described previously using the selected pathogens C. albicans [DSM 11225, DSM 1665], C. albicans CAI-4 HWP1-lacZ [ZK3379] and C. auris [DSM 21092] (see Table S1 for detailed information). All compounds were tested within the concentration range of 250 µg/mL–2 µg/mL for C. albicans [DSM 11225, DSM 1665], C. albicans CAI-4 HWP1-lacZ [ZK3379], C. auris [DSM 21092]. […]
(§2) All compounds were fully dissolved in
(§3) The assay was conducted as a minimum inhibitory concentration (MIC) assay in 96-well round-bottom microtiter plates using the parameters summarized in table S1 and as already described in [2]. Stocks of the test organisms were generated by growing the organisms overnight in 250 mL (Candida albicans [DSM 11225], [DSM 1665], CAI-4 HWP1-lacZ, Candida auris [DSM 21092]) or 50 mL shaking (the rest organisms) flasks filled with 25 mL of the growth medium at 140 rpm (for media and temperatures see table S1). After incubation overnight, the OD of the suspension was measured and adjusted by diluting with the respective growth medium. OD600 nm was adjusted to 0.01 for bacteria and OD600 nm to 0.1 for fungi and 150 μL of the adjusted suspensions were added to all wells of a 96-well microtiter plate (one test organism per plate). Subsequently, additional 130 μL (1 mg/mL tested compounds) or 142.5 μL (10 mg/mL tested compounds ) of suspensions, plus 20 μL (1 mg/mL tested compounds) respectively 7.5 μL (10 mg/mL tested compounds ) of the test compounds were added to first row. C ontrols (one compound/column) were added as well: MeOH were used as solvent control, while different positive controls (reference drugs ) were used for the according test organisms (see table S1). Starting from row A, 150 μL of the suspension were transferred […]
(§4) to the next row, the contents thoroughly mixed, and 150 μL transferred to the following row. The remaining 150 μL after row H were discarded.
(§5) 66.7 μg/mL in row A to 0.52 μg/mL in row H (1 mg/mL tested compounds) or 250 μg/mL in row A to 2 μg/mL in row H (10 mg/mL tested compounds).
(§6) The 96-well microtiter plates were then incubated overnight on a microplate shaker at 800 rpm at 30 or 37 °C (see table S1) and were visually evaluated the next day. The MIC is defined as the lowest concentration where no growth of the test organism was observed. A lower MIC thus corresponds to a higher antimicrobial activity […]
(§7) Table S1: MIC assay experiment parameters.
(§8) Tested organisms Strain No. Growth Incubation Positive control medium temp. [°C ] (reference)
(§9) KB-3-1 (ACC 158) cervix carcinoma as well as L929 (ACC 2) mouse fibroblasts were cultured under standard cell culture conditions (37 °C, 5% CO2, 95% humidified atmosphere). The cells were maintained in high glucose DMEM containing 10% fetal bovine serum and 100 U/mL penicillin and streptomycin (Gibco, Thermo Fisher Scientific, Waltham, USA). Cell lines were serially passaged after trypsinization, using 0.05% trypsin / 0.02% EDTA solution. The cultures were routinely monitored for potential contamination, and only mycoplasma free cultures were used. The test compounds were investigated for their anti-proliferative effect on cell lines, using the 3-(4,5-dimethylthiazol-2-yl)-2,5-diphenyltetrazolium bromide (MTT) based cell viability assay. […]

The subject of experiment [3] is C. albicans [DSM 11225]. Kind of experiment: MIC assay, C. albicans DSM 11225. Particulars: tested 250–2 µg/mL. The experiment is classed as cell-based, Candida albicans. How it is done: as §1, §2, §3, §4, §5, §6, §7, §8, §9
The subject of experiment [4] is C. albicans CAI-4 HWP1-lacZ [ZK3379]. Kind of experiment: MIC assay, C. albicans CAI-4 HWP1-lacZ. The class given is cell-based, Candida albicans. To be noted: tested 250–2 µg/mL. As for the experimental part:
as §1, §2, §3, §4, §5, §6, §7, §8, §9

Experiment [5] concerns C. albicans [DSM 1665]. More on the design: method as in doi:10.1002/ejoc.202001661. To be noted: highest tested concentration 250 µg/mL; cited from earlier work.

As usually defined, the MIC is the lowest concentration found to suppress growth. For the molecule `C[C@@H]1[C@H](O)[C@@H](C)/C=C/C=C/CC/C=C/C=C/C=C/C=C/C(O[C@H]2O[C@H](C)[C@@H](O)[C@H](N)[C@@H]2O)CC2O[C@](O)(CC(O)C(O)CCC(O)CC(O)CC(O)CC(=O)O[C@H]1C)CC(O)C2C(=O)O` (stereo partly shown) [Nystatin, nystatin], the “inhibition of C. auris biofilm formation compared to solvent control (= 0%)” value in experiment [1] (2 µg/mL) is “/ ((/) no activity)”; in experiment [1] (3.9 µg/mL), 60 ±10%; in experiment [1] (7.8 µg/mL), 42 ±15%; in experiment [1] (15.6 µg/mL) it was 47 ±2%; in experiment [1] (31.3 µg/mL), 50 ±10%; in experiment [1] (62.5 µg/mL) it was 53 ±8%. Besides, the “inhibition of C. auris biofilm formation compared to solvent control (= 0%)” value in experiment [1] (125 µg/mL) came to 45 ±10%; in experiment [1] (250 µg/mL) it was 56 ±2%. For the same molecule, the MIC was 31.3 µg/mL (≈ 33.8 µM) in experiment [2], 8.3 µg/mL (≈ 8.96 µM) in experiment [3], 8.3 µg/mL (≈ 8.96 µM) in experiment [4] and 8.3 µg/mL (≈ 8.96 µM) in experiment [5].
For the molecule `CC(=O)OC/C=C/C1=CC2=C(CO1)C(=O)[C@@](C)(OC(=O)c1c(C)cc(O)cc1O)C(=O)/C2=C\C=C\C1=CC2=C(CO1)C(=O)[C@@](C)(O)[C@@H](OC(=O)c1c(C)cc(O)cc1O)C2` [Rut A, rutilin A], in experiment [1], the “effect on formation of C. auris biofilms” value is recorded as “did not affect the formation”. The MIC result in experiment [2], in experiment [3], in experiment [4] and in experiment [5] was “no antimicrobial activity” throughout.
For the molecule `CC(=O)OC/C=C/C1=CC2=C(CO1)C(=O)[C@@](C)(OC(=O)c1c(C)cc(O)cc1O)C(=O)/C2=C\C=C\C1=CC2=C(CO1)C(=O)[C@@](C)(OC(=O)c1c(C)cc(O)cc1O)[C@@H](O)C2` [Rut B, rutilin B], the “effect on formation of C. auris biofilms” value in experiment [1] was “did not affect the formation”. Besides, the MIC result in experiment [2], in experiment [3], in experiment [4] and in experiment [5] was “no antimicrobial activity” each time.
